Data reported in patent publication US20010044457A1, “Cancer Treatment” (priority 2000, published 2001).

Test system: pancreatic (MiaPaCa) cancer
Assay: in vivo pancreatic (MiaPaCa) cancer nude mouse tumor model
Protocol: The control is PEG. Both the control and the active are given once a week to the end. The doses were 500 mg/kg, 750 mg/kg and 1000 mg/kg. The surviving animals average tumor weight in mg is: […]

Question: Which Deaths (500 mg/kg once a week, Day 1) does the source give for COc1ccc(C=Nn2cc(-c3ccccc3)nc2N)cc1 [2-Amino-1-(4-methoxybenzyliden)amino-4-phenylimidazole] here?
Answer: 0

Question: What about the “Tumor Weight (surviving animals average)” value (500 mg/kg once a week, Day 1) of the same molecule?
Answer: 77 mg

Question: What about the Deaths (500 mg/kg once a week, Day 5) of the same molecule?
Answer: 0

Question: What about the “Tumor Weight (surviving animals average)” value (500 mg/kg once a week, Day 5) of the same molecule?
Answer: 161 mg

Question: What about the Deaths (500 mg/kg once a week, Day 9) of the same molecule?
Answer: 0

Question: What about the “Tumor Weight (surviving animals average)” value (500 mg/kg once a week, Day 9) of the same molecule?
Answer: 322 mg

Question: And the Deaths (500 mg/kg once a week, Day 12)?
Answer: 0

Question: What about the “Tumor Weight (surviving animals average)” value (500 mg/kg once a week, Day 12) of the same molecule?
Answer: 271 mg

Question: What about the Deaths (500 mg/kg once a week, Day 16) of the same molecule?
Answer: 0

Question: And the “Tumor Weight (surviving animals average)” value (500 mg/kg once a week, Day 16)?
Answer: 596 mg

Question: And the Deaths (500 mg/kg once a week, Day 19)?
Answer: 0

Question: What about the “Tumor Weight (surviving animals average)” value (500 mg/kg once a week, Day 19) of the same molecule?
Answer: 640 mg

Question: What about the Deaths (500 mg/kg once a week, Day 23) of the same molecule?
Answer: 0

Question: And the “Tumor Weight (surviving animals average)” value (500 mg/kg once a week, Day 23)?
Answer: 638 mg

Question: What about the Deaths (500 mg/kg once a week, Day 26) of the same molecule?
Answer: 0

Question: And the “Tumor Weight (surviving animals average)” value (500 mg/kg once a week, Day 26)?
Answer: 532 mg

Question: And the “efficacy in tumor model” value (500 mg/kg, 750 mg/kg and 1000 mg/kg once a week, control PEG)?
Answer: dose responsive efficacy

Question: And the Deaths (750 mg/kg once a week, Day 1)?
Answer: 0

Question: And the “Tumor Weight (surviving animals average)” value (750 mg/kg once a week, Day 1)?
Answer: 76 mg

Question: What about the Deaths (750 mg/kg once a week, Day 5) of the same molecule?
Answer: 0

Question: What about the “Tumor Weight (surviving animals average)” value (750 mg/kg once a week, Day 5) of the same molecule?
Answer: 117 mg

Question: What about the Deaths (750 mg/kg once a week, Day 9) of the same molecule?
Answer: 0

Question: And the “Tumor Weight (surviving animals average)” value (750 mg/kg once a week, Day 9)?
Answer: 290 mg

Question: And the Deaths (750 mg/kg once a week, Day 12)?
Answer: 0

Question: And the “Tumor Weight (surviving animals average)” value (750 mg/kg once a week, Day 12)?
Answer: 281 mg

Question: And the Deaths (750 mg/kg once a week, Day 16)?
Answer: 0

Question: What about the “Tumor Weight (surviving animals average)” value (750 mg/kg once a week, Day 16) of the same molecule?
Answer: 369 mg

Question: And the Deaths (750 mg/kg once a week, Day 19)?
Answer: 0

Question: What about the “Tumor Weight (surviving animals average)” value (750 mg/kg once a week, Day 19) of the same molecule?
Answer: 364 mg

Question: And the Deaths (750 mg/kg once a week, Day 23)?
Answer: 0

Question: And the “Tumor Weight (surviving animals average)” value (750 mg/kg once a week, Day 23)?
Answer: 420 mg

Question: And the Deaths (750 mg/kg once a week, Day 26)?
Answer: 0

Question: And the “Tumor Weight (surviving animals average)” value (750 mg/kg once a week, Day 26)?
Answer: 418 mg

Question: What about the Deaths (1000 mg/kg once a week, Day 1) of the same molecule?
Answer: 0

Question: What about the “Tumor Weight (surviving animals average)” value (1000 mg/kg once a week, Day 1) of the same molecule?
Answer: 90 mg

Question: And the Deaths (1000 mg/kg once a week, Day 5)?
Answer: 0

Question: And the “Tumor Weight (surviving animals average)” value (1000 mg/kg once a week, Day 5)?
Answer: 90 mg

Question: And the Deaths (1000 mg/kg once a week, Day 9)?
Answer: 0

Question: And the “Tumor Weight (surviving animals average)” value (1000 mg/kg once a week, Day 9)?
Answer: 150 mg

Question: What about the Deaths (1000 mg/kg once a week, Day 12) of the same molecule?
Answer: 0

Question: What about the “Tumor Weight (surviving animals average)” value (1000 mg/kg once a week, Day 12) of the same molecule?
Answer: 130 mg

Question: And the Deaths (1000 mg/kg once a week, Day 16)?
Answer: 0

Question: What about the “Tumor Weight (surviving animals average)” value (1000 mg/kg once a week, Day 16) of the same molecule?
Answer: 120 mg

Question: What about the Deaths (1000 mg/kg once a week, Day 19) of the same molecule?
Answer: 1

Question: What about the “Tumor Weight (surviving animals average)” value (1000 mg/kg once a week, Day 19) of the same molecule?
Answer: 110 mg

Question: And the Deaths (1000 mg/kg once a week, Day 23)?
Answer: 0

Question: What about the “Tumor Weight (surviving animals average)” value (1000 mg/kg once a week, Day 23) of the same molecule?
Answer: 198 mg

Question: And the Deaths (1000 mg/kg once a week, Day 26)?
Answer: 0

Question: And the “Tumor Weight (surviving animals average)” value (1000 mg/kg once a week, Day 26)?
Answer: 192 mg
